Test results taken from patent publication US20240116985A1, “STAPLED PEPTIDES AND METHODS THEREOF” (priority 2020, published 2024).
Read-outs that look alike come from different tables or passages of the source.

Experiments:
[1] = molecular target: T1, full-length beta-Catenin (Uniprot ID P35222) (Homo sapiens, UniProt P35222); assay: Fluorescence polarization IC50 (beta-catenin / 5FAM-TCF4 10-53 competition); assay type: binding
T1 construct: 10 nM full-length beta-Catenin (Uniprot ID P35222)
T1 sequence (P35222 1-781): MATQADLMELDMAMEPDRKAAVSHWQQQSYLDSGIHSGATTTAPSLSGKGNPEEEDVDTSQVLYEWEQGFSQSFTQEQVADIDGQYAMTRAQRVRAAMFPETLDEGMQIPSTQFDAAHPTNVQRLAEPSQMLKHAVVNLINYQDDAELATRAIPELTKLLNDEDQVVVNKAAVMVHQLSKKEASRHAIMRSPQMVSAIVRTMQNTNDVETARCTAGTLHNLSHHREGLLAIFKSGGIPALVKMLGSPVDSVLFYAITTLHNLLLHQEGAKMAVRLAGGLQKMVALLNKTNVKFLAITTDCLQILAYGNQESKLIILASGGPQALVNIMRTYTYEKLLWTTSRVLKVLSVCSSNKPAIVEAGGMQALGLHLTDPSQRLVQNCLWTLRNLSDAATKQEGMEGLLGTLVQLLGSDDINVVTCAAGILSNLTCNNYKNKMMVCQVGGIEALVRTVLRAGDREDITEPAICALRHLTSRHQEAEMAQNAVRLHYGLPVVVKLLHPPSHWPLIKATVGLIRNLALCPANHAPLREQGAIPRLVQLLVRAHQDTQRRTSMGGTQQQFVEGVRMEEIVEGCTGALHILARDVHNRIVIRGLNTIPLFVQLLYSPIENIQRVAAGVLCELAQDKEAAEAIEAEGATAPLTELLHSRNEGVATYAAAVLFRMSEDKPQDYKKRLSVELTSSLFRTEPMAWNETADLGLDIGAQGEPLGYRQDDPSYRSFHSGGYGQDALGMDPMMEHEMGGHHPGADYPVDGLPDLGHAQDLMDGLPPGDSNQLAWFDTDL

CHI Log D procedure = assay type: physicochemical; conditions: for chromatographic logD: pH 7.4, CHI Log D; for CHI Log D: pH 7.4
[2] = molecular target: T2, beta-catenin/TCF4 engagement (Homo sapiens, UniProt P35222); assay: Nano-BRET target engagement assay (B-cat-Halo & TCF4-Luc in HEK293 cells); assay type: cell-based
T2 construct: expressed in transfected cells; host or cells: HEK293
T2 sequence (P35222 1-781): T1 sequence (P35222 1-781)

[3] = absolute IC50, read-out: NanoBRET Abs IC50
[4] = fluorescence polarization, beta-catenin, read-out: FP EC50

| SMILES | IC50 ([1]; read-out: beta-Catenin FP IC50) [nM] | chromatographic logD (CHI Log D procedure) | IC50 [2, 3] [nM] | IC50 [1, 4] [nM] | IC50 ([2]; read-out: NanoBRET Abs IC50) [nM] | CHI Log D (CHI Log D procedure) | IC50 ([2]; read-out: NanoBRET IC50) [nM] |
| --- | --- | --- | --- | --- | --- | --- | --- |
| CC(=O)N1CCC[C@]12CC=CCCCC1(CCCC=CCCCOC(=O)N3CC[C@@](C(=O)N[C@@H](Cc4ccsc4)C(=O)N[C@@H](Cc4csc5ccccc45)C(=O)N[C@@H](CCC(N)=O)C(N)=O)(C3)NC(=O)[C@H](Cc3ccccc3)NC(=O)[C@H](Cc3ccccc3)NC(=O)[C@H](C)NC(=O)[C@H](C)NC(=O)[C@H](Cc3ccc(C(=O)O)cc3)NC(=O)[C@H](CC(=O)O)NC1=O)NC(=O)[C@H](CC(C)(C)C)NC(=O)[C@H](CC(=O)O)NC2=O (stereo partly drawn) [I-850, Ac-PL3-Asp-Npg-B5-Asp-4COOHF-Ala-Ala-Phe-Phe-PyrS2-3Thi-BztA-Gln-NH2] | 26 | 2.26 | 16400 | – | – | – | – |
| CC(=O)N1CCC[C@]12CC=CCCCC1(CCCC=CCCCOC(=O)N3CC[C@@](C(=O)N[C@@H](Cc4ccccc4Cl)C(=O)N[C@@H](Cc4csc5ccccc45)C(=O)N[C@@H](CCC(N)=O)C(N)=O)(C3)NC(=O)[C@H](CC(C)C)NC(=O)[C@H](Cc3ccccc3)NC(=O)[C@H](C)NC(=O)[C@H](C)NC(=O)[C@H](CC(=O)O)NC(=O)[C@H](CC(=O)O)NC1=O)NC(=O)[C@H](CC(C)(C)C)NC(=O)[C@H](CC(=O)O)NC2=O (stereo partly drawn) [I-1062, Ac-PL3-Asp-Npg-B5-Asp-Asp-Ala-Ala-Phe-Leu-PyrS2-2C1F-BztA-Gln-NH2] | 11 | 1.9 | – | 393 | 4700 | – | – |
| CC(=O)N1CCC[C@]12CC=CCCCC1(CCCC=CCCCCOC(=O)N3CC[C@@](C(=O)N[C@@H](Cc4ccsc4)C(=O)N[C@@H](Cc4csc5ccccc45)C(=O)N[C@@H](CCC(N)=O)C(=O)N[C@@H](C)C(N)=O)(C3)NC(=O)[C@H](CC(N)=O)NC(=O)[C@H](Cc3ccccc3)NC(=O)[C@H](C)NC(=O)[C@H](C)NC(=O)[C@H](CC(=O)O)NC(=O)[C@H](CC(=O)O)NC1=O)NC(=O)[C@H](CC(C)(C)C)NC(=O)[C@H](CC(=O)O)NC2=O (stereo partly drawn) [I-825, Ac-PL3-Asp-Npg-B5-Asp-Asp-Ala-Ala-Phe-Asn-PyrS3-3Thi-BztA-Gln-Ala-NH2] | 15 | – | – | 15 | 27500 | 2.028 | – |
| CC(=O)N1CCC[C@]12CC=CCCCC1(CCCC=CCCCOC(=O)N3CC[C@@](C(=O)N[C@@H](Cc4ccsc4)C(=O)N[C@@H](Cc4csc5ccccc45)C(=O)N[C@@H](CCC(N)=O)C(N)=O)(C3)NC(=O)[C@H](CC(C)C)NC(=O)[C@H](Cc3ccccc3)NC(=O)[C@H](C)NC(=O)[C@H](C)NC(=O)[C@H](Cc3ccc(C(=O)O)cc3)NC(=O)[C@H](CC(=O)O)NC1=O)NC(=O)[C@H](CC(C)(C)C)NC(=O)[C@H](CC(=O)O)NC2=O (stereo partly drawn) [I-851, Ac-PL3-Asp-Npg-B5-Asp-4COOHF-Ala-Ala-Phe-Leu-PyrS2-3Thi-BztA-Gln-NH2] | 16 | 2.15 | 7600 | – | – | – | – |
| CC(=O)N1CCC[C@]12CC=CCCCC1(CCCC=CCCCCCC[C@@](C)(C(=O)N[C@@H](Cc3cccc(Cl)c3)C(=O)N[C@@H](Cc3csc4ccccc34)C(=O)N[C@@H](CCC(N)=O)C(N)=O)NC(=O)[C@H](CC(N)=O)NC(=O)[C@H](Cc3ccccc3)NC(=O)[C@H](C)NC(=O)[C@H](C)NC(=O)[C@H](CN(CC(=O)O)CC(F)(F)F)NC(=O)[C@H](CC(=O)O)NC1=O)NC(=O)[C@H](CC(C)(C)C)NC(=O)[C@H](CC(=O)O)NC2=O (stereo partly drawn) [I-933, Ac-PL3-Asp-Npg-B5-Asp-TfeGA-Ala-Ala-Phe-Asn-S8-3C1F-BztA-Gln-NH2] | 168 | 3.03 | – | – | 22200 | – | > 20000 |
| CC(=O)N1CCC[C@]12CC=CCCCC1(CCCC=CCCCCOC(=O)N3CC[C@@](C(=O)N[C@@H](Cc4ccsc4)C(=O)N[C@@H](Cc4csc5ccccc45)C(=O)N[C@@H](CCC(N)=O)C(=O)N[C@H](C)C(N)=O)(C3)NC(=O)[C@H](CC(N)=O)NC(=O)[C@H](Cc3ccccc3)NC(=O)[C@H](C)NC(=O)[C@H](C)NC(=O)[C@H](CC(=O)O)NC(=O)[C@H](CC(=O)O)NC1=O)NC(=O)[C@H](CC(C)(C)C)NC(=O)[C@H](CC(=O)O)NC2=O (stereo partly drawn) [I-830, Ac-PL3-Asp-Npg-B5-Asp-Asp-Ala-Ala-Phe-Asn-PyrS3-3Thi-BztA-Gln-dAla-NH2] | 15 | – | – | 15 | 38500 | 2.042 | – |
| CC(=O)N1CCC[C@]12CC=CCCCC1(CCCC=CCCCOC(=O)N3CC[C@@](C(=O)N[C@@H](Cc4ccccc4Cl)C(=O)N[C@@H](Cc4csc5ccccc45)C(=O)N[C@@H](CCC(N)=O)C(N)=O)(C3)NC(=O)[C@H](Cc3ccccc3)NC(=O)[C@H](Cc3ccccc3)NC(=O)[C@H](C)NC(=O)[C@H](C)NC(=O)[C@H](CN(CC(=O)O)CC(F)(F)F)NC(=O)[C@H](CC(=O)O)NC1=O)NC(=O)[C@H](CC(C)(C)C)NC(=O)[C@H](CC(=O)O)NC2=O (stereo partly drawn) [I-923, Ac-PL3-Asp-Npg-B5-Asp-TfeGA-Ala-Ala-Phe-Phe-PyrS2-2C1F-BztA-Gln-NH2] | 27 | 2.46 | 6000 | – | – | – | – |
| C#CCOCCC(=O)NCCCC[C@H](NC(=O)[C@H](CCC(N)=O)NC(=O)[C@H](Cc1csc2ccccc12)NC(=O)[C@H](Cc1ccsc1)NC(=O)[C@]12CCN(C1)C(=O)OCCCC=CCCCC1(CCCC=CC[C@]3(CCCN3C(C)=O)C(=O)N[C@@H](CC(=O)O)C(=O)N[C@@H](CC(C)(C)C)C(=O)N1)C(=O)N[C@@H](CC(=O)O)C(=O)N[C@@H](CC(=O)O)C(=O)N[C@@H](C)C(=O)N[C@@H](C)C(=O)N[C@@H](Cc1ccccc1)C(=O)N[C@@H](CC(N)=O)C(=O)N2)C(N)=O (stereo partly drawn) [I-935, Ac-PL3-Asp-Npg-B5-Asp-Asp-Ala-Ala-Phe-Asn-PyrS2-3Thi-BztA-Gln-[PropynPEG1]Lys-NH2] | 8 | 1.93 | – | – | 33100 | – | – |
| CC(=O)N1CCC[C@]12CC=CCCCC1(CCCC=CCCCCOC(=O)N3CC[C@@](C(=O)N[C@@H](Cc4ccsc4)C(=O)N[C@@H](Cc4csc5ccccc45)C(=O)N[C@@H](Cc4c[nH]cn4)C(=O)N[C@@H](C)C(N)=O)(C3)NC(=O)[C@H](CC(N)=O)NC(=O)[C@H](Cc3ccccc3)NC(=O)[C@H](C)NC(=O)[C@H](C)NC(=O)[C@H](CC(=O)O)NC(=O)[C@H](CC(=O)O)NC1=O)NC(=O)[C@H](CC(C)(C)C)NC(=O)[C@H](CC(=O)O)NC2=O (stereo partly drawn) [I-827, Ac-PL3-Asp-Npg-B5-Asp-Asp-Ala-Ala-Phe-Asn-PyrS3-3Thi-BztA-His-Ala-NH2] | 13 | – | – | 13 | > 20000 | 2.1 | – |
| C#CCOCCOCCC(=O)NCCCC[C@H](NC(=O)[C@H](CCC(N)=O)NC(=O)[C@H](Cc1csc2ccccc12)NC(=O)[C@H](Cc1ccsc1)NC(=O)[C@]12CCN(C1)C(=O)OCCCC=CCCCC1(CCCC=CC[C@]3(CCCN3C(C)=O)C(=O)N[C@@H](CC(=O)O)C(=O)N[C@@H](CC(C)(C)C)C(=O)N1)C(=O)N[C@@H](CC(=O)O)C(=O)N[C@@H](CC(=O)O)C(=O)N[C@@H](C)C(=O)N[C@@H](C)C(=O)N[C@@H](Cc1ccccc1)C(=O)N[C@@H](CC(N)=O)C(=O)N2)C(N)=O (stereo partly drawn) [I-936, Ac-PL3-Asp-Npg-B5-Asp-Asp-Ala-Ala-Phe-Asn-PyrS2-3Thi-BztA-Gln-[PropynPEG2]Lys-NH2] | 7 | 1.94 | – | – | 22200 | – | – |
